What all share (test): inhibition of tumour cell growth, NCI panel, 48 h
In assay [1] the test system is 786-0.
The subject of assay [2] is A498.
Assay [3] has as its system BT-549.
In assay [4] the test system is CCRF-CEM.
Assay [5] concerns HCT-116.
Assay [6] relates to Hs-578T.
The test system of assay [7] is IGROV-1.
Assay [8] deals with M14.
Assay [9] deals with M19-MEL.
Assay [10] deals with MCF7.
The test system of assay [11] is MDA-MB-231.
The test system of assay [12] is MDA-N.
In assay [13] the test system is NCI-H460.
Assay [14] has as its system OVCAR-4.
In assay [15] the test system is OVCAR-8.
The test system of assay [16] is RPMI-8226.
Assay [17] has as its system SK-MEL-2.
Assay [18] relates to SR.
Assay [19] has as its system TK-10.
Assay [20] has as its system U-251.

This note sets out measurements from ChEMBL document CHEMBL1201862, “PubChem BioAssay data set” (2004).

The structures appear in SMILES notation.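 Five concentrations, 48 hours, 96-well plates. The concentration for 50% growth inhibition is given as GI50.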 Calls of active or inactive are those of the source. Cut-off read from the data, not from the text of the source: active = GI50 up to about 1.1 µM and inactive = higher.

Consider `CC(=O)Oc1ccc(C(c2ccc(OC(C)=O)cc2)c2ccccn2)cc1` [BISACODYL], for which the GI50 in assay [1] was > 91.6 µM (inactive); in assay [2], 59 µM (inactive); in [3], 0.0843 µM (active); in assay [4] it was 71.1 µM (inactive); in [5], 70.6 µM (inactive); in assay [6] it was 0.232 µM (active). The GI50 in [7] was 71.6 µM (inactive); in assay [8], > 93.5 µM (inactive); in assay [9], 97.5 µM (inactive); in assay [10], 0.378 µM (active); in assay [11], 54.7 µM (inactive); in assay [12], > 87.9 µM (inactive). In addition, the GI50 in assay [13] was 99.1 µM (inactive); in assay [14] it was 0.146 µM (active); in assay [15], 1.4 µM (inactive); in assay [16] it was 65.3 µM (inactive); in [17] it was 98.6 µM (inactive); in assay [18], 64.4 µM (inactive). The GI50 was 81.3 µM (inactive) in assay [19] and > 97.5 µM (inactive) in assay [20].
In the case of `O=C(CNc1ccc2c(=S)c3ccccc3[nH]c2c1)Nc1ccccc1-c1ccccc1NC(=O)CNc1ccc2c(=S)c3ccccc3[nH]c2c1`, the GI50 in [1] is 13.1 µM (inactive); in assay [2] it was 25.2 µM (inactive); in [3], 23.8 µM (inactive); in [4], 2.73 µM (inactive); in [5], 18.5 µM (inactive); in assay [6], 29.2 µM (inactive). For the same molecule, the GI50 in assay [7] is 20.2 µM (inactive); in assay [8], 16.3 µM (inactive); in assay [9], > 39.2 µM (inactive); in assay [10], 16.4 µM (inactive); in assay [11] it was 22.7 µM (inactive); in assay [12], 18.1 µM (inactive). The GI50 in assay [13] was 17.1 µM (inactive); in assay [14], 3.94 µM (inactive); in [15], 23.9 µM (inactive); in assay [16], 8.75 µM (inactive); in assay [17] it was 15.6 µM (inactive); in assay [18], 6.01 µM (inactive). In addition, the figures for the GI50 in assay [19] and in assay [20] were 26.1 µM (inactive) and 19.6 µM (inactive), respectively.
As for `O=CN/C=C/c1cc(O)ccc1O` [ERBSTATIN], the GI50 in assay [1] was 14 µM (inactive); in assay [2], 59.7 µM (inactive); in assay [4], 4.11 µM (inactive); in assay [5], 15.7 µM (inactive); in [7], 26.2 µM (inactive); in [8], 14.9 µM (inactive). Besides, the GI50 is 13.3 µM (inactive) in [9]; 11.3 µM (inactive) in assay [10]; 56.2 µM (inactive) in [13]; 17.8 µM (inactive) in [14]; 17.8 µM (inactive) in assay [15]; 26.3 µM (inactive) in assay [16]. Moreover, the GI50 is 29.3 µM (inactive) in assay [17], 4.39 µM (inactive) in assay [18], 17 µM (inactive) in assay [19] and 42.3 µM (inactive) in [20].
With `CCN(CC)CCNc1c2ccccc2nc2cccc([N+](=O)[O-])c12`, the GI50 is 0.0136 µM (active) in assay [1]; 0.00782 µM (active) in assay [2]; 0.005 µM (active) in assay [3]; 0.0462 µM (active) in assay [4]; 0.00676 µM (active) in assay [5]; 0.017 µM (active) in assay [6]. In addition, the GI50 in assay [7] is 0.0182 µM (active); in assay [8] it was 0.00925 µM (active); in assay [9] it was 0.0352 µM (active); in [10] it was 0.00135 µM (active); in assay [11] it was 0.00136 µM (active); in assay [12] it was 0.00179 µM (active). The GI50 in assay [13] is 0.00622 µM (active); in assay [14] it was 0.0125 µM (active); in assay [15], 0.0177 µM (active); in assay [16] it was 0.00659 µM (active); in [17] it was 0.0133 µM (active); in [18] it was 0.00434 µM (active). The GI50 is 0.0288 µM (active) in assay [19] and 0.0123 µM (active) in assay [20].
